According to ChEMBL document CHEMBL1201862, “PubChem BioAssay data set” (2004):
Each block holds one compound with its values, some of them ahead of it. Calls of active or inactive are those of the source.

Legend:
[1] = molecular target: DNA (cytosine-5)-methyltransferase 1 (Homo sapiens, UniProt P26358); experiment: inhibition of DNA methylation by DNMT1 – biochemical, fluorescent molecular beacon, confirmation (AID 602386); type: functional
[2] = system: Streptococcus sp. 'group A'; experiment: Streptococcus pyogenes SK(-)GAS viability under kanamycin – luminescence, BacTiterGlo, confirmation, counter-screen for streptokinase expression inhibitor project, dose response (AID 1900); type: functional, organism-based
[3] = molecular target: Induced myeloid leukemia cell differentiation protein Mcl-1 (Homo sapiens, UniProt Q07820); type: functional
Sequence of Induced myeloid leukemia cell differentiation protein Mcl-1 (Q07820 whole entry): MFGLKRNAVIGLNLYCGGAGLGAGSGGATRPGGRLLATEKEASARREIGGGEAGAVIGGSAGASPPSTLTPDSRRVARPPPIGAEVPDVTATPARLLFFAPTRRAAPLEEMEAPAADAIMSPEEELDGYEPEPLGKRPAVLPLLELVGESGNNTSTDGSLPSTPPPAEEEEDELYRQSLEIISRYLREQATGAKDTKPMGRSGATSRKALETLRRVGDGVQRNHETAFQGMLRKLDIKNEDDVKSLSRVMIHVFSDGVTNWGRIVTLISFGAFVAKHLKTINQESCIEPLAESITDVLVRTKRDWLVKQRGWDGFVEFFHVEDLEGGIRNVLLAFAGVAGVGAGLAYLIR

[4] = Luminescence Cell-Based Dose Retest to Confirm Inhibitors of Cancer Stem Cells. [Related pubchem assays (depositor defined):AID2717, AID2721]; type: functional; conditions: Homo sapiens
[5] = system: Streptococcus; experiment: GAS UMAA2166 growth inhibition – luminescence, BacTiterGlo, counter-screen for streptokinase expression inhibitor project, dose response (AID 1915); type: functional, organism-based;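 also: potency for reduction of bacterial viability or growth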
[6] = molecular target: T1, Sentrin-specific protease 8 (Homo sapiens, UniProt Q96LD8); experiment: inhibition of human SENP8 cleavage activity – biochemical, luminescence, SAR follow-up (AID 504501); type: functional
T1 sequence (Q96LD8 whole entry): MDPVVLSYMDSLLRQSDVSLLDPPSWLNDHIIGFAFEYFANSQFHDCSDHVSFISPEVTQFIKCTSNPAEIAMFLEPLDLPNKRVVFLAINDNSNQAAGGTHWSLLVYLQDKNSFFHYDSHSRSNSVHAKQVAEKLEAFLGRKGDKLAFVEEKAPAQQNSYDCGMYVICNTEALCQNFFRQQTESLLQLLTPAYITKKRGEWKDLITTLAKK

[7] = molecular target: T2, Sentrin-specific protease 6 (Homo sapiens, UniProt Q9GZR1); experiment: SAR Analysis of small molecule inhibitors of Sentrin-specific protease 6 (SENP6) using a Luminescent assay. [Related pubchem assays (depositor defined):AID2582, AID2599]; type: functional
T2 sequence (Q9GZR1 whole entry): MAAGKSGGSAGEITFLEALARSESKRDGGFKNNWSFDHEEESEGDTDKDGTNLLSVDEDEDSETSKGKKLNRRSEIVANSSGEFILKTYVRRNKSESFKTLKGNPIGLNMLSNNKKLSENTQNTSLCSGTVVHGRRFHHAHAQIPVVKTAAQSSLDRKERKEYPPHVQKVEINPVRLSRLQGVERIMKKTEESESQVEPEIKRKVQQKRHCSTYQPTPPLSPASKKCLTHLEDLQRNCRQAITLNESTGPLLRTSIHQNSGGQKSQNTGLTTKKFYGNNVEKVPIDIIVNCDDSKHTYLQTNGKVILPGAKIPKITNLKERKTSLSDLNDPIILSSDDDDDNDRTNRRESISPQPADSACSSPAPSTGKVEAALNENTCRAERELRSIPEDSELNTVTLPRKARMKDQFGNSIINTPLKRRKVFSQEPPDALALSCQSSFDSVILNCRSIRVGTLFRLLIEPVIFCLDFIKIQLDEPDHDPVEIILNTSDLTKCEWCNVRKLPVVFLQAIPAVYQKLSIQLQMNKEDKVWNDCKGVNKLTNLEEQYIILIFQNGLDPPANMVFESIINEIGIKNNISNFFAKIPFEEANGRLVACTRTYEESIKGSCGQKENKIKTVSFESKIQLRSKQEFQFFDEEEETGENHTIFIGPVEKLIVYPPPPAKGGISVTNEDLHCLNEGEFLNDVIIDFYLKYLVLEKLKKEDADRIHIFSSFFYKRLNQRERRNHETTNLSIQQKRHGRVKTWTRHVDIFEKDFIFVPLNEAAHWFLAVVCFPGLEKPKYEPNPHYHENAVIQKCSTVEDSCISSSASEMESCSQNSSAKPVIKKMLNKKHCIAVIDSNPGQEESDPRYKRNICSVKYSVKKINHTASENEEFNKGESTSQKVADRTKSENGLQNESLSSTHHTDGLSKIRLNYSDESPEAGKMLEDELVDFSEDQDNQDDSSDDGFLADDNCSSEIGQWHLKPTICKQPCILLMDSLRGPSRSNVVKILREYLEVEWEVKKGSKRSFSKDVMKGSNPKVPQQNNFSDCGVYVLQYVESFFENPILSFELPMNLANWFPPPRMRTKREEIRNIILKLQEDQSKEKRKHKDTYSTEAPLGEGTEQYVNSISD

[8] = molecular target: T3, Sentrin-specific protease 7 (Homo sapiens, UniProt Q9BQF6); experiment: inhibition of human SENP7 cleavage activity – biochemical, luminescence, SAR follow-up (AID 504497); type: functional
T3 sequence (Q9BQF6 whole entry): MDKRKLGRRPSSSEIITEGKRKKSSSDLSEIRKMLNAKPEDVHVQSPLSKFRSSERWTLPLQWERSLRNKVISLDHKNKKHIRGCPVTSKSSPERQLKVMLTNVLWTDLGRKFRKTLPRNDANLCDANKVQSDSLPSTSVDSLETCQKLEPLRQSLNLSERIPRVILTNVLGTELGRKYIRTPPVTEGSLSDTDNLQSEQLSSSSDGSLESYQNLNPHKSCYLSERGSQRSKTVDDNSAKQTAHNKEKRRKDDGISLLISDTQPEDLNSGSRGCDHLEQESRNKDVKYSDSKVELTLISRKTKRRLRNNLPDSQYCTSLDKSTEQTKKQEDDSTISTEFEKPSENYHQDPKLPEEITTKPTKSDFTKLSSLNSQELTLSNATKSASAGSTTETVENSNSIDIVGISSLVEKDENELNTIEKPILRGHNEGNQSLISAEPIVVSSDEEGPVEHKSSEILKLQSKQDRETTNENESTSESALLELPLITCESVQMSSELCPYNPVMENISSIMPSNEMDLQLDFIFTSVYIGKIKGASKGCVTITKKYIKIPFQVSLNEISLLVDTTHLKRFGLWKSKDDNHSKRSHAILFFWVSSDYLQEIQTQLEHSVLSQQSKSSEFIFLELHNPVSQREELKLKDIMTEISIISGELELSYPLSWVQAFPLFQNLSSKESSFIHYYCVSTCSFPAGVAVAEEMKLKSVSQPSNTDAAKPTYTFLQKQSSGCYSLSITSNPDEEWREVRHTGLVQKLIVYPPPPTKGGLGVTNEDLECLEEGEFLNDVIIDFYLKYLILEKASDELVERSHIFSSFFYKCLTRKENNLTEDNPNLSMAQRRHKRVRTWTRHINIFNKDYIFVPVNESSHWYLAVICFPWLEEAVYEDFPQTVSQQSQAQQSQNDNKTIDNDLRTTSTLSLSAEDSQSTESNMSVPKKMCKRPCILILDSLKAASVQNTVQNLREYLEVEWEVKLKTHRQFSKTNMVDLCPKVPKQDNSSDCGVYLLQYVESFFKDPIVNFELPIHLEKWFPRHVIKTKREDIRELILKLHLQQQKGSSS

[9] = molecular target: T4, Caspase-3 (Homo sapiens, UniProt P42574); experiment: SAR Analysis of small molecule inhibitors of Sentrin-specific proteases (SENPs) using a Caspase-3 Selectivity assay. [Related pubchem assays (depositor defined):AID2540, AID2599, AID434973, AID489001]; type: functional
T4 sequence (P42574 whole entry): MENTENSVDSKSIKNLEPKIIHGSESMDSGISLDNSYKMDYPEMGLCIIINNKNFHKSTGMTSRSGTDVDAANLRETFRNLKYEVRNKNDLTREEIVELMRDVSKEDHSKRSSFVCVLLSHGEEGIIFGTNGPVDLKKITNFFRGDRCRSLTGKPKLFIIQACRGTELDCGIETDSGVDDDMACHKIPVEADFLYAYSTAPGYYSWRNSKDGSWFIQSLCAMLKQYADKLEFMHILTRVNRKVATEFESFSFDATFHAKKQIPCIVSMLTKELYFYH

[10] = molecular target: T5, Interleukin-8 (Homo sapiens, UniProt P10145); experiment: Dose Response confirmation of uHTS small molecule hits for cystic fibrosis induced NFkb Inhibitors in a PAF-induced IL8 counterscreen.; type: functional; conditions: read-out: IC50_Mean
T5 sequence (P10145 whole entry): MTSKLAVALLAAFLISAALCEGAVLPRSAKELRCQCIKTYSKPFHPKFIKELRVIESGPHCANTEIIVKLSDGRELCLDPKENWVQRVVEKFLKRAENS

[11] = molecular target: T6, Probable nicotinate-nucleotide adenylyltransferase (Staphylococcus aureus (strain N315), UniProt P65502); type: functional, Staphylococcus aureus subsp. aureus N315; conditions: read-out: IC50_Mean;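 as to IC50 Mean: confirmatory dose-response retesting of NadD inhibitor hits first found in an ultra-high-throughput screen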
[12] = molecular target: T7, Aminopeptidase N (Plasmodium falciparum FcB1/Columbia, UniProt O96935); experiment: malaria alanyl aminopeptidase activity blockers – biochemical, fluorogenic H-Leu-NHMec substrate, 1536-well (AID 1445); design: species or system Plasmodium falciparum 3D7, 3D7
T7 sequence (O96935 whole entry): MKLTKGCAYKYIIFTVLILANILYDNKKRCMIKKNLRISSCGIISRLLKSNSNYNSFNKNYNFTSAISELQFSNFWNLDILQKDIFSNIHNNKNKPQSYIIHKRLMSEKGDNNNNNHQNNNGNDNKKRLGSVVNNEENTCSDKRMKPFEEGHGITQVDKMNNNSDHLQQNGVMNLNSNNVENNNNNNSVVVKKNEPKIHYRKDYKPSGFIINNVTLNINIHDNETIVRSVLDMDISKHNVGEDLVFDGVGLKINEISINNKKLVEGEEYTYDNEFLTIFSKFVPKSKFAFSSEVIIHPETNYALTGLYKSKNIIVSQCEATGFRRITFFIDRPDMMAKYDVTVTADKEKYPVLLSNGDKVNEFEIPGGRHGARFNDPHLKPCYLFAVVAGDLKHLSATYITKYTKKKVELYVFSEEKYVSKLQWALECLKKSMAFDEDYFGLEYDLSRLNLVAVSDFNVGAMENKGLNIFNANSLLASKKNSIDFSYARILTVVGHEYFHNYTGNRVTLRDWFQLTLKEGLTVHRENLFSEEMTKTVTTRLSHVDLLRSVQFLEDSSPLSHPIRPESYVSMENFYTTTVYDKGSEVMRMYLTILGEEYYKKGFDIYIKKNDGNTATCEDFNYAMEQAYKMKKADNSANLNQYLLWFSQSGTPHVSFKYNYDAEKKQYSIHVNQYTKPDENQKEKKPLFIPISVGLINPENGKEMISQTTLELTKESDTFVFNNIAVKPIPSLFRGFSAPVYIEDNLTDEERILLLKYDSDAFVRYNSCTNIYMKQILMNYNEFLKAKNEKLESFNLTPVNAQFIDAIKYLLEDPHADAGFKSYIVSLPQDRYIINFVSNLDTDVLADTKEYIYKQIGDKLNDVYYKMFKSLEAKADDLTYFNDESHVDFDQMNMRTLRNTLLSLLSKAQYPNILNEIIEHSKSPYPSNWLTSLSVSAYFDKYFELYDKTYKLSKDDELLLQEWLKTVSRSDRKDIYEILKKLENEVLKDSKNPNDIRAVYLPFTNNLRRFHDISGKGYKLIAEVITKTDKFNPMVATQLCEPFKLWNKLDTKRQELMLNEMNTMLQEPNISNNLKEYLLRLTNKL

[13] = molecular target: T8, Estrogen receptor beta (Homo sapiens, UniProt Q92731);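 also: recombinant ER-beta bound to coactivator SRC1 peptide in presence of estradiol agonist; inhibitors block coactivator peptide binding and lower the FRET signal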
T8 sequence (Q92731 whole entry): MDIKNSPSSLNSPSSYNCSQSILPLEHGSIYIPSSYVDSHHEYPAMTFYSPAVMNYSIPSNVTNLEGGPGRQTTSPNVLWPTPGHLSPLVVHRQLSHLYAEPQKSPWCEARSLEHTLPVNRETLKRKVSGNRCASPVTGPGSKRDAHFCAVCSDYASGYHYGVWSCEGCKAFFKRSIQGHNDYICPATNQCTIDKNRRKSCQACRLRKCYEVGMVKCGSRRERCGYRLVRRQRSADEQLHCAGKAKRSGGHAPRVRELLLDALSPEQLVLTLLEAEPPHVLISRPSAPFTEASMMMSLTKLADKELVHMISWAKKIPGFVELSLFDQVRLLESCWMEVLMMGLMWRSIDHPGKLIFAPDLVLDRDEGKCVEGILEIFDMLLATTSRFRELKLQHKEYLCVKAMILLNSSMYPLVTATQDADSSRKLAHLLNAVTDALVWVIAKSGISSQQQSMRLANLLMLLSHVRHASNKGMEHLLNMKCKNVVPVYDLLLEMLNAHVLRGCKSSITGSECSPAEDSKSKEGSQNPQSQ

[14] = molecular target: T6, Probable nicotinate-nucleotide adenylyltransferase; type: functional, Staphylococcus aureus subsp. aureus N315
[15] = molecular target: T8, Estrogen receptor beta; experiment: blockers of SRC-3 recruitment to ERβ – biochemical, ELISA, streptavidin-HRP readout, orthogonal assay, confirmation (AID 1060)
[16] = molecular target: Protein Wnt-3a (Mus musculus, UniProt P27467); experiment: antagonism of Wnt3a pathway luciferase reporter – Wnt-LIGHT cells, luminescence, selectivity assay for Gli-SUFU antagonist project, dose response (AID 651570); type: functional; conditions: read-out: IC50_Mean;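 also: Wnt-LIGHT reporter cells stimulated with conditioned medium from Wnt3a-producing cells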
Sequence of Protein Wnt-3a (P27467 whole entry): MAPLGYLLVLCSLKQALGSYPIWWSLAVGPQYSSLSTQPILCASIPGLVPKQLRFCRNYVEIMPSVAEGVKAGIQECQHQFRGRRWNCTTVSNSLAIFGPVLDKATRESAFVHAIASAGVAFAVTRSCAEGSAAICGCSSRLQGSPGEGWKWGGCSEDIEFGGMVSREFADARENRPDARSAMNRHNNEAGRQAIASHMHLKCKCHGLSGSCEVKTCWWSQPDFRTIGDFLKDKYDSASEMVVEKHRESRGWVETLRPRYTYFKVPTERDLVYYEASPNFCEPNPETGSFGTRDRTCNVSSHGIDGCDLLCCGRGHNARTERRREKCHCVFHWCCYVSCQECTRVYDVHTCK
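For AC50 in this document: cells exposed to compound for roughly 70 hours or longer before luminescence read.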

Sequence of DNA (cytosine-5)-methyltransferase 1 (P26358 whole entry): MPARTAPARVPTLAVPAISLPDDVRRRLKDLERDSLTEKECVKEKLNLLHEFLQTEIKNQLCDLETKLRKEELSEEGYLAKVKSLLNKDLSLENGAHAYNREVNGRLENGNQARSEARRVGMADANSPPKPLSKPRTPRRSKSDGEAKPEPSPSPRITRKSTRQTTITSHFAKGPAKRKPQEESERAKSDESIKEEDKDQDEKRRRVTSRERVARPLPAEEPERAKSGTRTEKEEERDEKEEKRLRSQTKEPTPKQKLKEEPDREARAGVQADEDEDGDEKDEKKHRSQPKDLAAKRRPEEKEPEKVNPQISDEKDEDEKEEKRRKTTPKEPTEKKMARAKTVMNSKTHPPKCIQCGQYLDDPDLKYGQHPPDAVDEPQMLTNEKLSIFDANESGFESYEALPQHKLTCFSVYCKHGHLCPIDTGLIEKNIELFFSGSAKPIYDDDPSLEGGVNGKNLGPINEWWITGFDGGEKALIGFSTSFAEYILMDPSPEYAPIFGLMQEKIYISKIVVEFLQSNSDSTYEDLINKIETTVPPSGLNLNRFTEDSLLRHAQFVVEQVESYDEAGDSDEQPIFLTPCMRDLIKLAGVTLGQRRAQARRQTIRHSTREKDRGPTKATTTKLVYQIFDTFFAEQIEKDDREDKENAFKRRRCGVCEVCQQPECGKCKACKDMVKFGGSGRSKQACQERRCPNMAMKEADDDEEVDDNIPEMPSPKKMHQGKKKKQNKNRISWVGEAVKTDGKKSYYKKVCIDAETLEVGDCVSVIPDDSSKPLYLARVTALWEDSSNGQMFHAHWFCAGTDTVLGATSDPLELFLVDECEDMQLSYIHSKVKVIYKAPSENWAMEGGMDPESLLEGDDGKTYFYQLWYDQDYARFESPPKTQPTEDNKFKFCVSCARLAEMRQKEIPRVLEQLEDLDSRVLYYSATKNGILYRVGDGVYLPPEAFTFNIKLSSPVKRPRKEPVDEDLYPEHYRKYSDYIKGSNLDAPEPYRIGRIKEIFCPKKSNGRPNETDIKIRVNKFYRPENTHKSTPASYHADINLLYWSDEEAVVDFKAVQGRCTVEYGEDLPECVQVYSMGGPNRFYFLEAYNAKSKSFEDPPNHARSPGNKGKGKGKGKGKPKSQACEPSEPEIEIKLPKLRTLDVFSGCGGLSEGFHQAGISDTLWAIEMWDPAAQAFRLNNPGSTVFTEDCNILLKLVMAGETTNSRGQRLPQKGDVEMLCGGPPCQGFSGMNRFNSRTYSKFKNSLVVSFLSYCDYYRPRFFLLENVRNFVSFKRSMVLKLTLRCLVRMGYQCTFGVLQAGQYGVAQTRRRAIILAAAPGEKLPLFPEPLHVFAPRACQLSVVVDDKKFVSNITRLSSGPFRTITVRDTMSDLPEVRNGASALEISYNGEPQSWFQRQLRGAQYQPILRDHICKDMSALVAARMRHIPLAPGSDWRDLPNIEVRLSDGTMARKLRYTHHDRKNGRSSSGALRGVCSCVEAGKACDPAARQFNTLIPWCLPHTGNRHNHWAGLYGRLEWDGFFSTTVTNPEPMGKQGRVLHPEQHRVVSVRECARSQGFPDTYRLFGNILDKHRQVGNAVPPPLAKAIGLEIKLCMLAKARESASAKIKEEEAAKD

SMILES: COc1ccc(/C=C2/C(=O)N(c3nc4ccccc4s3)N=C2CSc2ccc(Cl)cc2)cc1
- IC50 [1]: 2.86 µM (active)
- EC50 [2]: 0.647 µM (active)
- IC50 [3]: 1.69 µM (active)
- AC50 [4]: 3.01 µM (active)
- EC50 [5]: 3.65 µM (active)

SMILES: CCCCOCCCNC(=O)CNC(=O)c1sc2ccccc2c1Cl
- IC50 [6]: > 99 µM (inactive)
- IC50 [7]: > 99 µM (inactive)
- IC50 [8]: > 99 µM (inactive)
- IC50 [9]: > 99 µM (inactive)

SMILES: CC1=C(C(=O)OCc2ccc3c(c2)OCO3)C(c2cccc([N+](=O)[O-])c2)NC(=O)N1 (stereo unspecified)
- IC50 [10]: > 79 µM (inactive)

SMILES: Cc1oc2c(cc(NS(=O)(=O)c3ccc4c5c(cccc35)C(=O)N4)c3ccccc32)c1C(=O)OC(C)C
- IC50 [11]: 63.2 µM (active)
- IC50 [12]: 36.7 µM (active)
- IC50 [13]: 34.8 µM (not active)
- IC50 [14]: 28.6 µM (active)
- IC50 [15]: 0.706 µM (not active)

SMILES: O=C(Nc1ccccc1)C1=C[C@@H](C2CCCCC2)C[C@@H](OCCCCO)O1
- IC50 [16]: 47.7 µM (inactive)

More lines, main results first:

- IC50 [7]: 2.95 µM (active)
- IC50 [8]: 2.65 µM (active)
- IC50 [9]: 12 µM (active)
SMILES: O=C(Nc1nc2ccc(NS(=O)(=O)c3ccc(Cl)s3)cc2s1)c1ccccc1
- IC50 [6]: 3.34 µM (active)

- IC50 [11]: 28.3 µM (active)
- IC50 [14]: 14.3 µM (active)
SMILES: Oc1ccc(Nc2nc(-c3cccs3)cs2)cc1

- IC50 [7]: > 99 µM (inactive)
- IC50 [8]: 46.5 µM (active)
- IC50 [9]: > 99 µM (inactive)
SMILES: CCOc1ccc2nc(NC(=O)c3ccc(NS(=O)(=O)c4cccs4)cc3)sc2c1
- IC50 [6]: > 99 µM (inactive)
